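Exposure lasted 48 hours, with cells grown in 96-well plates and compounds tested at five concentrations. GI50 = concentration required for 50% inhibition of growth. The concentration for full growth arrest is given as TGI.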
Legend:
Assay in all cases: inhibition of tumour cell growth, NCI panel, 48 h; in the data active means GI50 below about 0.43 µM; inactive means the rest
[1] = test system: 786-0 renal
[2] = test system: A498 renal
[3] = test system: A549 NSCLC
[4] = test system: ACHN renal
[5] = test system: BT-549 breast
[6] = test system: CAKI-1 renal
[7] = test system: CCRF-CEM leukemia
[8] = test system: COLO 205 colon
[9] = test system: DU-145 prostate
[10] = test system: EKVX NSCLC
[11] = test system: HCC-2998 colon
[12] = test system: HCT-116 colon
[13] = test system: HCT-15 colon
[14] = test system: HL-60(TB) leukemia
[15] = test system: HOP-62 NSCLC
[16] = test system: HT29 colon
[17] = test system: IGROV1 ovarian
[18] = test system: K-562 leukemia
[19] = test system: KM12 colon
[20] = test system: LOX IMVI melanoma
[21] = test system: M14 melanoma
[22] = test system: MALME-3M melanoma
[23] = test system: MCF7 breast
[24] = test system: MDA-MB-231 breast
[25] = test system: MDA-MB-435
[26] = test system: MOLT-4 leukemia
[27] = test system: NCI-H226 lung
[28] = test system: NCI-H23 lung
[29] = test system: NCI-H460 lung
[30] = test system: NCI-H522 lung
[31] = test system: NCI/ADR-RES ovarian
[32] = test system: OVCAR-3 ovarian
[33] = test system: OVCAR-4 ovarian
[34] = test system: OVCAR-5 ovarian
[35] = test system: OVCAR-8 ovarian
[36] = test system: PC-3 prostate
[37] = test system: RPMI-8226 leukemia
[38] = test system: RXF 393 renal
[39] = test system: SF-268 CNS
[40] = test system: SF-295 CNS
[41] = test system: SF-539 CNS
[42] = test system: SK-MEL-2 melanoma
[43] = test system: SK-MEL-28 melanoma
[44] = test system: SK-MEL-5 melanoma
[45] = test system: SK-OV-3 ovarian
[46] = test system: SN12C renal
[47] = test system: SNB-19 CNS
[48] = test system: SNB-75 CNS
[49] = test system: SR leukemia
[50] = test system: SW-620 colon
[51] = test system: T-47D breast
[52] = test system: TK-10 renal
[53] = test system: U251 CNS
[54] = test system: UACC-257 melanoma
[55] = test system: UACC-62 melanoma
[56] = test system: UO-31 renal
[57] = test system: HOP-92 NSCLC
[58] = test system: HS 578T breast

C1=C2CCCC3=Cc4ccccc4OC23Oc2ccccc21
25.9 µM: TGI [7]
16.4 µM: TGI [29]
45.5 µM: TGI [24]
60.6 µM: TGI [23]
inactive: GI50 [1] 6.41 µM | GI50 [2] 2.76 µM | GI50 [3] 5.87 µM | GI50 [4] 5.06 µM | GI50 [5] 3.73 µM | GI50 [6] 3.71 µM | GI50 [7] 3.47 µM | GI50 [8] 2.24 µM | GI50 [9] 3.73 µM | GI50 [10] 5.49 µM | GI50 [11] 10.3 µM | GI50 [12] 4.35 µM | GI50 [13] 3.68 µM | GI50 [14] 3.24 µM | GI50 [15] 3.8 µM | GI50 [16] 3.52 µM | GI50 [17] 5.36 µM | GI50 [18] 3.54 µM | GI50 [19] 3.61 µM | GI50 [20] 3.88 µM | GI50 [21] 3.37 µM | GI50 [22] 7.17 µM | GI50 [23] 3.03 µM | GI50 [24] 4.23 µM | GI50 [25] 1.64 µM | GI50 [26] 3.66 µM | GI50 [27] > 100 µM | GI50 [28] 6.2 µM | GI50 [29] 3.47 µM | GI50 [30] 2.3 µM | GI50 [31] 3.18 µM | GI50 [32] 3.06 µM | GI50 [33] 6.12 µM | GI50 [34] 3.46 µM | GI50 [35] 4.04 µM | GI50 [36] 4 µM | GI50 [37] 3.38 µM | GI50 [38] 2.85 µM | GI50 [39] 4.74 µM | GI50 [40] 3.99 µM | GI50 [41] 1.92 µM | GI50 [42] 4.31 µM | GI50 [43] 5.22 µM | GI50 [44] 3.37 µM | GI50 [45] 3.52 µM | GI50 [46] 4.42 µM | GI50 [47] 4.01 µM | GI50 [48] 1.64 µM | GI50 [49] 2.82 µM | GI50 [50] 3.36 µM | GI50 [51] 2.46 µM | GI50 [52] 9.87 µM | GI50 [53] 4.54 µM | GI50 [54] 5.49 µM | GI50 [55] 2.91 µM | GI50 [56] 4.86 µM
28 µM: TGI [20]
5.04 µM: TGI [8]
25.6 µM: TGI [42]
6.2 µM: TGI [30]
69.1 µM: TGI [9]
> 100 µM: TGI [1] | TGI [3] | TGI [4] | TGI [6] | TGI [10] | TGI [12] | TGI [13] | TGI [14] | TGI [15] | TGI [17] | TGI [18] | TGI [21] | TGI [22] | TGI [26] | TGI [27] | TGI [28] | TGI [32] | TGI [33] | TGI [34] | TGI [35] | TGI [36] | TGI [39] | TGI [40] | TGI [43] | TGI [45] | TGI [46] | TGI [47] | TGI [49] | TGI [51] | TGI [52] | TGI [53] | TGI [54] | TGI [56]
56.7 µM: TGI [19]
15 µM: TGI [37]
13.1 µM: TGI [2]
55.7 µM: TGI [31]
73.7 µM: TGI [5]
5.84 µM: TGI [48]
4.68 µM: TGI [25]
5.01 µM: TGI [41]
17.9 µM: TGI [16]
53.6 µM: TGI [50]
24.2 µM: TGI [44]
82.5 µM: TGI [55]
8.77 µM: TGI [38]
60.7 µM: TGI [11]

O=c1/c(=C\c2ccc(F)cc2)sc2n1C(c1ccc(F)cc1)C1=C(N=2)c2ccc3ccccc3c2OCC1 (centres undefined)
inactive: GI50 [1] > 100 µM | GI50 [2] > 100 µM | GI50 [3] > 100 µM | GI50 [4] > 100 µM | GI50 [5] > 64.5 µM | GI50 [7] > 100 µM | GI50 [8] > 100 µM | GI50 [9] > 100 µM | GI50 [10] > 100 µM | GI50 [11] > 100 µM | GI50 [12] > 100 µM | GI50 [13] 7.17 µM | GI50 [14] > 100 µM | GI50 [15] > 100 µM | GI50 [58] > 100 µM | GI50 [16] > 100 µM | GI50 [17] > 100 µM | GI50 [18] > 29.5 µM | GI50 [19] > 89.8 µM | GI50 [20] > 100 µM | GI50 [21] > 100 µM | GI50 [22] > 100 µM | GI50 [23] > 100 µM | GI50 [24] > 100 µM | GI50 [25] > 100 µM | GI50 [26] > 100 µM | GI50 [27] > 100 µM | GI50 [28] > 100 µM | GI50 [29] 14.2 µM | GI50 [30] > 100 µM | GI50 [31] > 100 µM | GI50 [32] > 100 µM | GI50 [33] > 100 µM | GI50 [34] > 100 µM | GI50 [35] > 100 µM | GI50 [36] > 52.8 µM | GI50 [37] > 100 µM | GI50 [38] > 100 µM | GI50 [39] > 30.8 µM | GI50 [40] > 100 µM | GI50 [41] > 100 µM | GI50 [42] > 100 µM | GI50 [43] > 100 µM | GI50 [44] > 100 µM | GI50 [45] > 100 µM | GI50 [46] > 100 µM | GI50 [47] > 100 µM | GI50 [48] > 100 µM | GI50 [50] > 100 µM | GI50 [51] > 100 µM | GI50 [52] > 100 µM | GI50 [53] > 100 µM | GI50 [54] > 100 µM | GI50 [55] > 100 µM | GI50 [56] > 100 µM
> 66.9 µM: TGI [6]
> 100 µM: TGI [1] | TGI [2] | TGI [3] | TGI [4] | TGI [5] | TGI [7] | TGI [8] | TGI [9] | TGI [10] | TGI [11] | TGI [12] | TGI [13] | TGI [14] | TGI [15] | TGI [57] | TGI [58] | TGI [16] | TGI [17] | TGI [18] | TGI [19] | TGI [20] | TGI [21] | TGI [22] | TGI [23] | TGI [24] | TGI [25] | TGI [26] | TGI [27] | TGI [28] | TGI [29] | TGI [30] | TGI [31] | TGI [32] | TGI [33] | TGI [34] | TGI [35] | TGI [36] | TGI [37] | TGI [38] | TGI [39] | TGI [40] | TGI [41] | TGI [42] | TGI [43] | TGI [44] | TGI [45] | TGI [46] | TGI [47] | TGI [48] | TGI [50] | TGI [51] | TGI [52] | TGI [53] | TGI [54] | TGI [55] | TGI [56]
